Experimental data taken from the NIST ThermoML archive (doi:10.1016/j.jct.2016.09.005).

Details: Fluid (supercritical or subcritical phases), Brillouin Light Scattering

CC(C)OC(C)C [diisopropyl ether]
Details | speed of sound [m/s]
541.51 K, 6500 kPa | 190.79
544.16 K, 3500 kPa | 139.1
545.71 K, 4500 kPa | 129.23
546.93 K, 5500 kPa | 147.8
547.24 K, 6500 kPa | 183.8
551 K, 3500 kPa | 147.92
554.09 K, 4500 kPa | 137.04
554.6 K, 5500 kPa | 142.16
555.23 K, 6500 kPa | 172.31
556.02 K, 3500 kPa | 156.04
562.71 K, 3500 kPa | 162.02
564.46 K, 4500 kPa | 151.45
564.68 K, 5500 kPa | 144.2
564.77 K, 6500 kPa | 162.69
568.12 K, 3500 kPa | 172.59
570.23 K, 4500 kPa | 159.8
570.32 K, 6500 kPa | 155.46
571.21 K, 5500 kPa | 149.54
572.24 K, 3500 kPa | 178.24
574.75 K, 6500 kPa | 156.08
575.87 K, 4500 kPa | 166.92
576.95 K, 5500 kPa | 157.61
578.05 K, 3500 kPa | 184.2
580.81 K, 6500 kPa | 160.95
582.97 K, 4500 kPa | 176.94
583.61 K, 3500 kPa | 191.39
583.79 K, 5500 kPa | 168.45
586.87 K, 6500 kPa | 165.44
587.28 K, 5500 kPa | 174.08
588.06 K, 4500 kPa | 184.23
588.82 K, 3500 kPa | 197.63
591.77 K, 3500 kPa | 201.8
592.03 K, 6500 kPa | 173.69
592.07 K, 4500 kPa | 191.01
592.51 K, 5500 kPa | 179.58
595.88 K, 6500 kPa | 181.47
597.6 K, 4500 kPa | 197.93
597.6 K, 5500 kPa | 185.96
597.62 K, 3500 kPa | 207.01
602.12 K, 3500 kPa | 213.74
602.56 K, 4500 kPa | 203.87
603.22 K, 6500 kPa | 189.62
603.37 K, 5500 kPa | 196.7
607.19 K, 4500 kPa | 209.92
607.26 K, 5500 kPa | 201.24
608.3 K, 3500 kPa | 220.34
608.98 K, 6500 kPa | 198.69
612.23 K, 3500 kPa | 223.95
612.23 K, 4500 kPa | 214.66
612.33 K, 5500 kPa | 208.84
612.73 K, 6500 kPa | 201.04
617.47 K, 4500 kPa | 220.52
618 K, 3500 kPa | 231.2
618.05 K, 5500 kPa | 215.78
618.31 K, 6500 kPa | 208.27
622.27 K, 3500 kPa | 235.81
623.05 K, 5500 kPa | 219.38
623.51 K, 4500 kPa | 226.31
623.75 K, 6500 kPa | 213.55
626.85 K, 5500 kPa | 224.98
627.63 K, 6500 kPa | 217.44
627.65 K, 3500 kPa | 240.7
628.55 K, 4500 kPa | 231.82
632.23 K, 4500 kPa | 235.83
632.72 K, 5500 kPa | 227.82
632.86 K, 3500 kPa | 243.95
633.54 K, 6500 kPa | 221.63
637.16 K, 6500 kPa | 225.18
638.22 K, 3500 kPa | 249.88
638.59 K, 4500 kPa | 240.88
638.75 K, 5500 kPa | 232.85
642.34 K, 6500 kPa | 228.66
643.55 K, 4500 kPa | 245.98
643.72 K, 3500 kPa | 254.88
644.35 K, 5500 kPa | 237.43
648.15 K, 5500 kPa | 239.71
648.16 K, 6500 kPa | 231.72
648.36 K, 3500 kPa | 257.88
648.6 K, 4500 kPa | 250.01
652.25 K, 4500 kPa | 253.58
652.83 K, 5500 kPa | 244.43
653.38 K, 3500 kPa | 263.46
653.97 K, 6500 kPa | 236.88
657.92 K, 5500 kPa | 246.91
658.37 K, 4500 kPa | 256.34
658.49 K, 6500 kPa | 239.95
658.61 K, 3500 kPa | 265.77
662.18 K, 5500 kPa | 249.76
662.28 K, 4500 kPa | 259.34
663.04 K, 6500 kPa | 242.15
664.11 K, 3500 kPa | 269.84
667.5 K, 5500 kPa | 252.59
667.83 K, 4500 kPa | 264.18
667.84 K, 6500 kPa | 245.05
668.59 K, 3500 kPa | 271.89
670.57 K, 5500 kPa | 254.53
671.41 K, 6500 kPa | 247.45
672.38 K, 4500 kPa | 265.43
672.56 K, 3500 kPa | 274.52
